A short description of the series: Thermal stability test. Type of series: physicochemical. The method, then:
The test compound was placed in a glass bottle and allowed to stand under the following conditions (1) and (2). After a certain period of time had elapsed, the residual rate of the active ingredient [compound (I)] in the test compound was measured by high performance liquid chromatography.
(1): Closed state, 60° C.;
(2): Non-closed state, 40° C., humidity 75%.
The measurement conditions in high performance liquid chromatography are as follows.
Column: L-column ODS [4.6 mm×250 mm, manufactured by Chemicals Evaluation and Research Institute, Japan]
Mobile layer: acetonitrile/22 mM potassium dihydrogenphosphate buffer/methanol=455/350/195 (V/V/V) (adjusted to pH 5.5 by phosphoric acid)
Column temperature: 40° C.
Detection wavelength: 220 nm
The residual rate (%) was calculated by the following formula.
The residual rate (%)=[1−(sum of peak area percentages of impurities and decomposed products)]×100

Setting [1] is: Condition (1): closed state, 60° C., time 0 month.
Setting [2] is: Condition (1): closed state, 60° C., time 1 month.
Where [3] appears, read: Condition (1): closed state, 60° C., time 3 months.
Setting [4] is: Condition (1): closed state, 60° C.
Setting [5] is: Condition (1): closed state, 60° C., time 0 month, dihydrochloride.
Setting [6] is: Condition (1): closed state, 60° C., time 1 month, dihydrochloride.
Setting [7] is: Condition (2): non-closed state, 40° C., humidity 75%, dihydrochloride.
Setting [8] is: Condition (2): non-closed state, 40° C., humidity 75%, time 0 month, dihydrochloride.
[9] abbreviates: Condition (2): non-closed state, 40° C., humidity 75%, time 1 month.
Where [10] appears, read: Condition (2): non-closed state, 40° C., humidity 75%, time 3 months.
The mark [11] stands for this setting: Condition (1): closed state, 60° C., time 6 months.
Where [12] appears, read: Condition (2): non-closed state, 40° C., humidity 75%.
[13] abbreviates: Condition (2): non-closed state, 40° C., humidity 75%, time 0 month.
Setting [14] is: Condition (2): non-closed state, 40° C., humidity 75%, time 6 months.

With `CC1=C(C(=O)OC(C)C)C(c2cccc([N+](=O)[O-])c2)C(C(=O)OC2CN(C(c3ccccc3)c3ccccc3)C2)=C(N)N1.CS(=O)(=O)O.CS(=O)(=O)O` (centres unmarked) [Example 3, 2-Amino-1,4-dihydro-6-methyl-4-(3-nitrophenyl)-3,5-pyridinedicarboxylic acid 3-(1-diphenylmethylazetidin-3-yl)ester 5-isopropyl ester dimethanesulfonate], the “Residual rate of Compound (I)” value stood at 99.6% under setting [1], 98.7% under setting [2] and 98.5% under setting [3].
On to `CC1=C(C(=O)OC(C)C)C(c2cccc([N+](=O)[O-])c2)C(C(=O)OC2CN(C(c3ccccc3)c3ccccc3)C2)=C(N)N1.Cl.Cl` (centres unmarked) [Comparative Example 1, 2-Amino-1,4-dihydro-6-methyl-4-(3-nitrophenyl)-3,5-pyridinedicarboxylic acid 3-(1-diphenylmethylazetidin-3-yl)ester 5-isopropyl ester dihydrochloride, reference compound], for which the “stability (in words)” value runs as follows: under setting [4], “extremely low stability”; under setting [7], “low stability”. For the same compound, the “Residual rate of Compound (I)” value is on record as 98.1% under setting [5]; 60.0% under setting [6]; 58.9% under setting [3]; 98.1% under setting [8]; 62.9% under setting [9]; 59.0% under setting [10].
As to `CC1=C(C(=O)OC(C)C)C(c2cccc([N+](=O)[O-])c2)C(C(=O)OC2CN(C(c3ccccc3)c3ccccc3)C2)=C(N)N1.O=S(=O)(O)c1ccccc1.O=S(=O)(O)c1ccccc1` (centres unmarked) [Example 5, 2-Amino-1,4-dihydro-6-methyl-4-(3-nitrophenyl)-3,5-pyridinedicarboxylic acid 3-(1-diphenylmethylazetidin-3-yl)ester 5-isopropyl ester dibenzenesulfonate], the “stability (in words)” value under setting [4] is listed as “equal in stability”. In addition, the “Residual rate of Compound (I)” value by setting is: under setting [1], 99.7%; under setting [2], 98.6%; under setting [3], 96.5%; under setting [11], 93.3%.
Regarding `CC1=C(C(=O)OC(C)C)C(c2cccc([N+](=O)[O-])c2)C(C(=O)OC2CN(C(c3ccccc3)c3ccccc3)C2)=C(N)N1.O=S(=O)(O)O` (centres unmarked) [Comparative Example 3, 2-Amino-1,4-dihydro-6-methyl-4-(3-nitrophenyl)-3,5-pyridinedicarboxylic Acid 3-(1-diphenylmethylazetidin-3-yl)ester 5-isopropyl Ester Monosulfate, reference compound], the “stability (in words)” value under setting [4] is reported as “did not have high stability” and the “stability (in words)” value under setting [12] is listed as “low stability”. Further, the “Residual rate of Compound (I)” value under setting [1] was 99.5%; the “Residual rate of Compound (I)” value under setting [2] was 96.9%; the “Residual rate of Compound (I)” value under setting [3] came to 94.9%; the “Residual rate of Compound (I)” value under setting [11] is 92.8%; the “Residual rate of Compound (I)” value under setting [13] was 99.5%; the “Residual rate of Compound (I)” value under setting [9] is 93.9%. Besides, the “Residual rate of Compound (I)” value runs as follows: under setting [10], 88.9%; under setting [14], 84.8%.
`CC1=C(C(=O)OC(C)C)C(c2cccc([N+](=O)[O-])c2)C(C(=O)OC2CN(C(c3ccccc3)c3ccccc3)C2)=C(N)N1.O=C(O)CC(O)(CC(=O)O)C(=O)O` (single isomer, unassigned) [Example 2, 2-Amino-1,4-dihydro-6-methyl-4-(3-nitrophenyl)-3,5-pyridinedicarboxylic acid 3-(1-diphenylmethylazetidin-3-yl)ester 5-isopropyl ester monocitrate]: under setting [4], the “stability (in words)” value is “equal in stability”. Besides, the “Residual rate of Compound (I)” value by setting is: under setting [1], 98.8%; under setting [2], 96.9%; under setting [3], 95.8%.
As to `CC1=C(C(=O)OC(C)C)C(c2cccc([N+](=O)[O-])c2)C(C(=O)OC2CN(C(c3ccccc3)c3ccccc3)C2)=C(N)N1.Cc1ccc(S(=O)(=O)O)cc1.Cc1ccc(S(=O)(=O)O)cc1` (centres unmarked) [Example 6, 2-Amino-1,4-dihydro-6-methyl-4-(3-nitrophenyl)-3,5-pyridinedicarboxylic acid 3-(1-diphenylmethylazetidin-3-yl)ester 5-isopropyl ester di-p-toluenesulfonate], the “Residual rate of Compound (I)” value by setting is: under setting [1], 99.6%; under setting [2], 98.8%; under setting [3], 98.3%; under setting [11], 97.3%; under setting [13], 99.6%; under setting [9], 97.5%. Moreover, the “Residual rate of Compound (I)” value was found to be 96.4% under setting [10] and 94.5% under setting [14]. Further, under setting [12], the “stability (in words)” value was “excellent stability”.
Regarding “2-Amino-1,4-dihydro-6-methyl-4-(3-nitrophenyl)-3,5-pyridinedicarboxylic Acid 3-(1-diphenylmethylazetidin-3-yl)ester 5-isopropyl Ester Hemifumarate [Comparative Example 4, reference compound]”, the “stability (in words)” value is “did not have high stability” under setting [4] and “low stability” under setting [12]. In addition, the “Residual rate of Compound (I)” value came out at 99.7% under setting [1]; 96.7% under setting [2]; 93.0% under setting [3]; 99.7% under setting [13]; 94.8% under setting [9]; 91.3% under setting [10].
As to `CC1=C(C(=O)OC(C)C)C(c2cccc([N+](=O)[O-])c2)C(C(=O)OC2CN(C(c3ccccc3)c3ccccc3)C2)=C(N)N1.CS(=O)(=O)O.CS(=O)(=O)O.CS(=O)(=O)O` (centres unmarked) [Example 4, 2-Amino-1,4-dihydro-6-methyl-4-(3-nitrophenyl)-3,5-pyridinedicarboxylic acid 3-(1-diphenylmethylazetidin-3-yl)ester 5-isopropyl ester trimethanesulfonate], the “Residual rate of Compound (I)” value runs as follows: under setting [1], 99.5%; under setting [2], 98.6%; under setting [3], 98.1%; under setting [13], 99.5%; under setting [9], 99.1%; under setting [10], 98.8%. Besides, under setting [12], the “stability (in words)” value was “excellent stability”.
Turning to `CC1=C(C(=O)OC(C)C)C(c2cccc([N+](=O)[O-])c2)C(C(=O)OC2CN(C(c3ccccc3)c3ccccc3)C2)=C(N)N1.Cl.Cl` (centres unmarked) [Comparative Example 2, 2-Amino-1,4-dihydro-6-methyl-4-(3-nitrophenyl)-3,5-pyridinedicarboxylic Acid 3-(1-diphenylmethylazetidin-3-yl)ester 5-isopropyl Ester Dihydrochloride, reference compound], the “stability (in words)” value is listed as “extremely low stability” under setting [4] and “extremely low stability” under setting [7]. The “Residual rate of Compound (I)” value worked out at 97.3% under setting [5]; 10.3% under setting [6]; 97.3% under setting [8]; 11.3% (Condition (2): non-closed state, 40° C., humidity 75%, time 1 month, Dihydrochloride).
Take “2-Amino-1,4-dihydro-6-methyl-4-(3-nitrophenyl)-3,5-pyridinedicarboxylic acid 3-(1-diphenylmethylazetidin-3-yl)ester 5-isopropyl Ester Dinaphthalenesulfonate [Example 7]”: the “stability (in words)” value under setting [4] is given as “equal in stability”. The “Residual rate of Compound (I)” value was found to be 99.4% under setting [1], 97.3% under setting [2], 95.4% under setting [3] and 93.0% under setting [11].

Values taken from patent US20090170827A1, “Acid Addition Salt of Dihydropyridine Derivative” (Daiichi Sankyo Company , Limited, priority 2005, published 2009).
